Results as given in ChEMBL document CHEMBL1649366, “Self-organizing molecular field analysis on human β-secretase nonpeptide inhibitors: 5, 5-disubstituted aminohydantoins” (Eur J Med Chem, 2011).

Target: Beta-secretase 1 (Homo sapiens, UniProt P56817)
Assay: Inhibition of human BACE1

Beta-secretase 1, sequence (P56817 whole entry): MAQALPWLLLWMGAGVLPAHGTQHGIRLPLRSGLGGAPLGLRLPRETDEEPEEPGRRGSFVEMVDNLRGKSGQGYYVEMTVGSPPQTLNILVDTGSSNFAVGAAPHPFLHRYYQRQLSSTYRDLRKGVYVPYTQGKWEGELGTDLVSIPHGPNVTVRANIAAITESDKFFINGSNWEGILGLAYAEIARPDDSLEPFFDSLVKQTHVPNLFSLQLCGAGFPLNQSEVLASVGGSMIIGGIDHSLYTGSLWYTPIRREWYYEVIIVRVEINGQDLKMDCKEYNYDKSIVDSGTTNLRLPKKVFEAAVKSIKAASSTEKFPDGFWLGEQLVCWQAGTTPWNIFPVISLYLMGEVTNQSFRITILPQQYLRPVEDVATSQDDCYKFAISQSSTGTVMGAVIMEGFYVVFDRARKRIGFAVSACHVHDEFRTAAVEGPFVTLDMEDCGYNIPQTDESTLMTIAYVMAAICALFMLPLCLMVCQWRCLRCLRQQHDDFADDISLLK

| Structure (SMILES) | IC50 |
| --- | --- |
| NC1=NC(c2ccccc2)(c2ccccc2)C(=O)N1 | 20 µM |
| CCN1C(=O)C(c2ccccc2)(c2ccccc2)N=C1N | 8 µM |
| NC1=NC(c2ccccc2)(C2CCCCC2)C(=O)N1CCCO (centres undefined) | 4.8 µM |
| CCc1cc(C2(c3cccc(-c4cncnc4)c3)N=C(N)N(C)C2=O)cc(CC)n1 (centres undefined) | 0.03 µM |
